Two compounds from patent US8946436B2, “Oxazolidinone compounds and their uses in preparation of antibiotics” (Sichuan Gooddoctor Pharmaceutical Group Co., Ltd., priority 2011, dated 2015) can be followed below.

The test system of one assay is ATCC 25923. In words: Mouse model of systemic infection. The class given is in vivo, C57 mice. Conditions: intravenous. An excerpt:
Animal model: SPF grade C57 mice, 4-6 weeks age, weight 18-22 g, ten mice per group;
Infectious strain: ATCC 25923, grown in a MHB medium to a period of logarithmic growth;
Test compounds: Compound 13f prepared according to the methods above, and Linezolid as a control, purchased from Airsea Pharmaceutical Ltd., (Taizhou, ZheJiang Province, China;
Formulation and dosage of the test compounds: To evaluate the treating effect of compound 13f, an animal model of intraperitoneal infection by bacteria was established and grouped into 13f group and Linezolid group. The same dosage of the compound 13f and Linezolid was administrated to the groups, respectively.
The minimum lethal dose (MLD) was determined as follows: Bacterial stock liquid cultured overnight was adjusted to 0.5 McFarland with saline solution, and subsequently subjected to a proper serial dilution. 3-5 dilutions with different concentrations of the bacteria were used to infect mice (10 mice per concentration), respectively, by intraperitoneal injection with a volume of 0.5 mL of the dilution. The minimum concentration at which 100% mice were dead was regarded as MLD. For purpose of ensuring experimental reliability, two control groups (MLD control group and 1/10MLD control group) were used in this experiment. The mortality of the MLD control group was 100%, while the mortality of the 1/10OMLD control group was 30%. […] To enhance virulence of the infectious bacteria, 15% yeast was added into the bacterial liquid for infection.
Experimental animal and grouping: SPF grade C57 mice (purchased from Experiment Animal Center, West China Hospital of Sichuan University), 4-6 weeks old, weighting 18-22 g, were randomly divided into groups, including model group, and treating groups consisting of group administrated with compound 13f at 5 mg/kg, group administrated with compound 13f at 10 mg/kg, group administrated with Linezolid at 5 mg/kg and group administrated with Linezolid at 10 mg/kg, with ten mice per group.
1) Based on the MLD result from the preliminary experiment, the mice were infected by intraperitoneal injection with a saline suspension of ATCC 25923, containing 15% yeast. Injection dosage of the bacteria was 0.2 OD/mice.
2) Administration time and frequency: The above mentioned compounds (compound 13f and Linezolid) were administrated to the mice of the treating groups 1 hour before and 4 hour after the infection, respectively. Meanwhile, the mice of the model group received only solvents in the same volume as that of the compound solution administrated in the treating group. The treating groups includes compound 13f group at 10 mg/kg, compound 13f group at 5 mg/kg, Linezolid group at 10 mg/kg and Linezolid group at 5 mg/kg.
3) Administration route: intravenous injection;
4) Dissolving compounds: The compounds were dissolved with 30% water solution of hydroxypropyl-β-cyclodextrin;
5) Efficacy observation: After infection and administration, the appetites, activities, symptoms and signs of the test mice were observed regularly. The survival rate was monitored every 4 h. The observation lasted for 7 days. During this period of observation, dissection of dying mice was immediately carried out after their death, and a histopathological examination was conducted, if necessary.
6) Evaluation: Main indexes include survival time, survival rate, and CFU count of organ and blood.

Another assay has as its system L-02. The experiment in a line: Cytotoxicity experiment (MTT), L-02. The assay is classed as cell-based. Conditions: L-02 normal cells. The procedure: (1) Inoculating cells: Experimental cells in the growth of logarithmic phase were collected and suspended. The cell concentration of the suspension was adjusted so that they could be inoculated into the wells of 96-well micro plate at a density between 10^3-10^4 cells per well (200 μl per well). (2) Culturing cells: The cells were cultured at normal conditions for 3 days and then exposed to 50 uM compounds for test. (3) Coloring reaction: At 24 h, 48 h and 72 h after the cells being exposed to the compounds for test, 200 μl culture medium containing 20 μl MTT solution (5 mg/ml) was added into each well, and the well was further incubated at 37° C. for 2 hours to terminate the incubation. After the incubation, the supernatants were removed from the wells. In the event there were suspended cells in the wells, centrifugation should be performed before removal of supernatant from the wells. After the removal, 150 μl DMSO was added to each well and mixed thoroughly by agitation for 10 mins to fully dissolve crystals. (4) Ascertainment of colorimetry: The absorbance value at 490 nm of each well was determined by Enzyme-linked immunosorbent Monitor. The growth curve of the experimental cells was plotted by taking time as x-coordinate and absorbance value as y-coordinate. In addition, an inhibition ratio could be calculated in accordance with the following formula: Inhibition ratio=(absorbance value of control group-absorbance value of administering group)/absorbance value of control group×100%.

[1] abbreviates: 10 mg/kg, 1 hour before and 4 hour after infection, 7 days observation.

The mortality is the share of the test organisms that died. Read a low mortality as a weak lethal effect.

For the compound `CC(=O)NC[C@H]1CN(c2ccc(-n3cc(-c4ccccn4)cn3)c(F)c2)C(=O)O1` [Compound 13f, (S)-N-((3-(3-fluoro-4-(4-(pyridin-2-yl)-1H-pyrazol-1-yl)phenyl)-2-oxooxazolidin-5-yl)methyl)acetamide], in the assay with ATCC 25923 (5 mg/kg), the “in vivo treatment effect and protection effect compared with Linezolid” value is “better in vivo treatment effect and protection effect”; the “time after infection at which death of mice was observed” value stood at 5 h. The compound further showed a mortality in the assay with ATCC 25923 (5 mg/kg, in 24 h) of 20%. Moreover, the “therapeutic effect compared with linezolid” value in the assay on ATCC 25923 (10 mg/kg) is given as “same therapeutic effect as linezolid”. This compound also registered a survival rate with ATCC 25923 (setting [1]) of 100%. Besides, in the assay with L-02 (Homo sapiens, L02, 48 h, read-out: Inhibition ratio), the cytotoxicity at 50 µM was determined as 2.74%.

With `CC(=O)NC[C@H]1CN(c2ccc(N3CCOCC3)c(F)c2)C(=O)O1` [Linezolid, reference compound], the “time after infection at which death of mice was observed” value in the assay on ATCC 25923 (5 mg/kg) is 5 h. Further, the mortality in the assay on ATCC 25923 (5 mg/kg, in 24 h) turned out to be 50%; with ATCC 25923 (5 mg/kg, in 48 h), 70%; with ATCC 25923 (5 mg/kg, in 72 h), 100%. In addition, the protection rate with ATCC 25923 (setting [1]) was found to be 100%. Moreover, the Inhibition ratio in the assay on L-02 (50 uM, 48 h) is given as more than 50%.
